Source: article PMC10778626, “Efficacy of Novel Quaternary Ammonium and Phosphonium Salts Differing in Cation Type and Alkyl Chain Length against Antibiotic-Resistant Staphylococcus aureus” (International Journal of Molecular Sciences, 2023)

What was measured:
[1] = Chromatographic hydrophobicity index (CHI) by UHPLC; assay type: physicochemical; conditions: for CHI: LC/UV at pH 2.6, calculated from retention time with the calibration line; for chromatographic logP: back-calculated from CHI at pH 2.6: CHI LogP = 0.047 × CHI + 0.36 × HBC − 1.10
Procedure: The chromatographic hydrophobicity index (CHI) values were determined using the retention times (tR) of the samples under study and of a mixture of standard compounds on a UHPLC NEXERA SERIES LC-40 with a Luna C18 (2) column of 150 × 4.6 mm, 5 μm (Phenomenex, Torrance, CA, USA). Stock solutions of the test compounds (10 mM) were prepared in dimethyl sulfoxide (DMSO, 99.9%; Carlo Erba) and diluted in acetonitrile/water (1:1) to obtain a final concentration of 500 μM. The mobile phase A was 1.0% (v/v) aqueous acetic acid solution (pH = 2.6), and the mobile phase B was acetonitrile. The following gradient programme was applied: 1–7 min 0–100% B, 7–17 min 100% B, 17–19 min 100–0% B, 1 mL/min flow; rt, injection volume 40 μL.
A calibration line was obtained using a mixture of the following compounds: benzimidazole, theophylline, paracetamol, caffeine, colchicine, carbamazepine, indole, propiophenone, butyrophenone, valerophenone, and heptanophenone (Table S1 and Figure S50, Supplementary Materials). The experimental CHI values of the compounds tested at pH 2.6 were then converted to the logarithm of octanol/water partition coefficient (CHI LogP) values using Equation (1). CHI LogP = 0.047 × CHI + 0.36 × HBC − 1.10 (1) where HBC is the hydrogen bond donor count.

[2] = test system: S. aureus XU212, SA1199B, and RN4220; assay: MIC/MBC by broth microdilution, ranges over the antibiotic-resistant strains; assay type: cell-based, Staphylococcus aureus
Procedure: S. aureus CECT 976, obtained from the Spanish Type Culture Collection, was used as the standard susceptibility testing control strain. This strain has been previously employed in diverse studies to validate the antimicrobial effects of novel molecules. Additional antibiotic-resistant strains, S. aureus XU212, SA1199B, and RN4220, generously provided by S. Gibbons (University College London, London, UK) were tested. […] The SA1199B strain is characterized by its resistance to fluoroquinolones due to the overexpression of the NorA efflux pump and its ciprofloxacin resistance.
The minimum inhibitory concentration (MIC) and minimum bactericidal concentration (MBC) values of all QHSs were determined by the broth microdilution method, according to the approved M7-A7 (aerobes) standards of the Clinical and Laboratory Standards Institute (CLSI) guidelines. […] Absorbance measurements were performed at the beginning (t = 0 h) and end (t = 24 h) of the incubation period using a microtiter plate absorbance reader (BMG LABTECH FLUOstar Omega). […]
Plates were incubated at 37 °C for 24 h, and growth was visually inspected. The MBC was determined as the lowest concentration of compound in which the total inhibition of growth on solid medium was observed (no colony forming units (CFUs) were detected). […]

Compound: CCCCCCCCCCCCCC[P+](c1ccccc1)(c1ccccc1)c1ccccc1 [Compound 1e, Triphenyl(tetradecyl)phosphonium bromide]
- CHI [1]: 105.0
- chromatographic logP [1]: 3.84
- MBC values, range over strains [2]: 2 µg/mL

Compound: CCCCCCCCCCCCCC[n+]1ccn(C)c1.[Br-] [Compound 2e, 1-Methyl-3-tetradecyl-1H-imidazol-3-ium bromide]
- CHI [1]: 81.36
- chromatographic logP [1]: 2.72

Compound: CCCCCCCCCCCCCC[n+]1ccc2ccccc2c1.[Br-] [Compound 3e, 2-Tetradecylisoquinolin-2-ium bromide]
- CHI [1]: 87.98
- chromatographic logP [1]: 3.04

Compound: CCCCCCCCCCCCCC[n+]1ccc(C)cc1.[Br-] [Compound 4e, 4-Methyl-1-tetradecylpyridin-1-ium bromide]
- CHI [1]: 82.90
- chromatographic logP [1]: 2.8

Compound: CCCCCCCCCCCCCC[n+]1cccc2ccccc21.[Br-] [Compound 5e, 1-Tetradecylquinolin-1-ium bromide]
- CHI [1]: 88.00
- chromatographic logP [1]: 3.04
- MBC values, range over strains [2]: 8 µg/mL

Compound: CCCCCCCCCCCCCC[n+]1ccccc1.[Br-] [Compound 6e, 1-Tetradecylpyridin-1-ium bromide]
- CHI [1]: 79.90
- chromatographic logP [1]: 2.65
